Reference: patent US6733998B1, “Micromonospora echinospora genes coding for biosynthesis of calicheamicin and self-resistance thereto” (priority 1998, dated 2004)

How the values were obtained:
[1] = tested on: supercoiled pBlusecript plasmid DNA; experiment: In vitro calicheamicin-induced DNA cleavage assay (agarose gel); assay type: biochemical
Protocol: To test this theory, preliminary assays were performed with supercoiled pBlusecript plasmid DNA (“pBS”) as the template, and dithiothreitol (“DTT”) as the reductive initiator. In a typical assay, purified mbp-CalC (15.0 nM) and 30.0 nM calicheamicin were preincubated for 15 min. in a total volume of 25 μL 40 mM Tris-Cl, pH 7.5, at 37° C. Then 2.5 μL 10 mM DTT stock solution was added to the assay solution, and the assay was incubated an additional 1 hour at 37° C. DNA fragmentation was assessed by electrophoresis on a 1% agarose gel stained with ethidium bromide.
Reconstitution of apo-mbp-CalC was accomplished by preincubation with 1 mM FeSO4 (Fe^+2) or FeCl3 (Fe^+3) prior to the activity assay as previously described.

[2] = tested on: break light A (calicheamicin recognition sequence 5′-TCCT-3′); experiment: Molecular break light assay, break light A; assay type: biochemical; conditions: for Maximum fluorescence obtained upon cleavage of break light A: excess DTT
Description: (§1) The invention further provides for a method of assaying the calicheamicin-induced DNA cleavage and its CalC-mediated inhibition using the molecular break light assay. Two molecular break lights (MLBs) for the experiments are described in example 7. Break light A is comprised of a 10-base pair stem which contained the known calicheamicin recognition sequence 5′-TCCT-3′, while break light B carries the BamHI endonuclease recognition sequence 5′-GGATCC-3′. The 5′-fluorophore of both probes was fluorescein (FAM, absorbancemax=485 nm, emissionmax=517 nm) while the corresponding 3′-quencher was 4-(4′-dimethylaminophenylazo)benzoic acid (DABCYL). Generally, MLBs operate by a separation of the fluorophore-quencher pair resulting a corresponding fluorescent signal.
(§2) The invention further provides for a method of assaying the calicheamicin-induced DNA cleavage and its CalC mediated inhibition using the molecular break light assay. Break light A was comprised of a 10-base pair stem which contained the known calicheamicin recognition sequence 5′-TCCT-3′, while break light B carried the BamHI endonuclease recognition sequence 5′-GGATCC-3′. […] The loop of both probes consisted of a T4 loop to ensure non-hybridizing interactions. The 5′-fluorophore of both probes was fluorescein (FAM, absorbancemax=485 nm, emissionmax=517 nm) while the corresponding 3′-quencher was 4-(4′-dimethylaminophenylazo)benzoic acid (DABCYL). Previous studies have shown DABCYL to serve as a universal quencher in molecular beacons and there is significant spectral overlap (1.02×10^−15 M^−1 cm^3) between the emission spectrum of FAM and the absorption spectrum of DABCYL.
Enzymalic Cleavage as Proof of Principle. […] Specifically, only break light B should cleave in the presence of the restriction endonuclease BamHI while both A and B should be digested by the non-specific nuclease DNaseI. […] In comparison, control samples containing break lights alone or break lights in the presence of BSA gave no change in fluorescence over >2 hr at 37° C. Given the lack of fluorescence in the absence of enzyme, the designed break lights show no appreciable melting at the designated assay temperature.
Enediyne-Catalyzed Cleavage. Previous assays for enediyne cleavage of DNA relied upon discontinuous assays using radioactive DNA probes, electrophoresis and subsequent phosphoimager analysis. In contrast, by using break lights one can directly follow the extent of DNA cleavage by a specific enediyne in real time with high sensitivity. […] Under the conditions described, this assay allows the detection of 1 in the pM range. This sensitivity compares to that of the biochemical induction assay (BIA), the method of choice in detecting DNA-damaging agents. […] This supports the view that the specificity of 1 is more dependent upon context and perhaps less so on DNA sequence. It should also be noted that 1 leads to predominately double-stranded cleavage while 2 provides single-stranded nicks and the current molecular break light assay can not distinguish these two phenomena.
CalC inhibits calicheamicin mediated DNA cleavage. […] 3.6 pM break light A is coincubated with 3.5 nM calicheamicin with increasing amounts of CalC (0.0 nm, 1.3 nm, 2.6 nm, 3.9 nm, 5.2 nm). Complete inhibition of calicheamicin is achieved with roughly 2-fold excess of CalC. CalC has no effect on esperamicin-induced cleavage of DNA (data not shown).

CalC = experiment: Interaction of calicheamicin with CalC measured by CalC tryptophan fluorescence; assay type: binding, Micromonospora echinospora
Description: CalC has 5 tryptophan and no cysteine residues and is unaffected by the reductive activator dithiothreitol (DTT). As the concentration of calicheamicin (3) increases in the absence of DTT there is little change in the CalC Trp fluorescence intensity.

S. lividans = experiment: Calicheamicin resistance on transgenic expression of calC in S. lividans; assay type: cell-based
Description: (§3) DNA containing calC was cloned into an inducible vector, using known methods, resulting in overexpression of calC. The polypeptide product (CalC) was then isolated and purified to homogeneity. […] Another aspect of the invention is an expression vector containing calC or a fragment of calC coding for a bioactive molecule. There is also provided a transformed host cell, preferably bacteria, more preferably E. coli, containing calC or a fragment of calC coding for a bioactive molecule. Such transgenic expression of calC results in an 10^5-fold increase in calicheamicin resistance in E. coli, a 100-fold increase in resistance in S. lividans, and a 50-fold increase in resistance in yeast.

[3] = tested on: break light B (BamHI recognition sequence 5′-GGATCC-3′); experiment: Molecular break light assay, break light B; assay type: biochemical
Description: as §1
as §2, with “Previous studies have shown DABCYL to serve as a universal quencher in molecular beacons and there is significant spectral overlap (1.02×10^−15 M^−1 cm^3) between the emission spectrum of FAM and the absorption spectrum of DABCYL.” left out
Enzymalic Cleavage as Proof of Principle. […] In comparison, control samples containing break lights alone or break lights in the presence of BSA gave no change in fluorescence over >2 hr at 37° C. Given the lack of fluorescence in the absence of enzyme, the designed break lights show no appreciable melting at the designated assay temperature.
Consistent with this finding, PAGE analysis of the reaction products confirmed the presence of a […] after excess treatment with BamHI which is completely degraded upon DNaseI digestion. As a result, the fluorescence maxium observed with excess BamHI was designated 100% cleavage for the BamHI kinetic studies described below. […]

E. coli [4] = experiment: Growth of cosmid/plasmid-carrying clones on LB plates containing calicheamicin (maximum tolerated concentration); assay type: cell-based; conditions: for Maximum tolerated concentration of calicheamicin: LB plates
Protocol: To isolate the gene(s) responsible for calicheamicin resistance in Micromonospora, clones conferring calicheamicin resistance were selected by growth of a Micromonospora genomic bifunctional cosmid library on LB plates containing ampicillin (50 μg ml^−1) and calicheamicin (0.25 μg ml^−1). […] Restriction mapping of these clones localized the desired phenotype to a ˜2kb PstI-SacI fragment of DNA. (FIG. 2). Maximum tolerated concentrations of calicheamicin on the LB plates was ascertained. The results are as follows:
The proximal 1 kb of this fragment carried the single orf calD while the distal 1 kb presented orf calC. […] Therefore, it was hypothesized that calD was not responsible for calicheamicin resistance. To rule out calD as being responsible for calicheamicin resistance, a subclone was engineered (pJT1224) to contain an intact calD, but the truncated calC gene. This subclone was not able to confer resistance to calicheamicin. Next, a subclone containing the calC region was constructed (pJT1232). This clone conferred calicheamicin resistance, as indicated in the above chart.
To ascertain the amino acid sequence of CalC and learn its properties, calC was cloned into a pMAL-C2 vector. (pMAL-C2 by itself could not confer calicheamicin resistance. See above chart.) The resulting plasmid, pRE7, which contained calC, conferred resistance to calicheamicin. See above chart. Plasmid pRE7 was then induced with isopropyl Beta-D-thiogalactoside (“IPTG”) to overexpress CalC. Induced pRE7 conferred resistance to calicheamicin and produced a maltose-binding protein CalC fusion protein (mbp-CalC). This resulting overexpression of CalC increased calicheamicin resistance 10^2-fold in vivo. See above chart.

yeast = experiment: Calicheamicin resistance on transgenic expression of calC in yeast; assay type: cell-based
Description: as §3

E. coli [5] = experiment: Calicheamicin resistance on transgenic expression of calC in E. coli; assay type: cell-based
Description: as §3

HT1080 (human) cell line = experiment: Calicheamicin resistance on transgenic expression of calC in HT1080 cell line; assay type: cell-based
Description: The present invention provides for the transformation of human cells with the calC gene. The transgenic expression of calC in the HT1080 (human) cell line increased its resistance to calicheamicin 10-fold. This technique allows bone marrow cells, for example, to be removed from a patient being treated with calicheamicin, and for these cells to be transformed with calC, and for the transformed cells to be returned to the patient. This allows the patient to tolerate treatment with calicheamicin or allows the patient to receive higher doses of calicheamicin as the returned human-calC-transformed cells have calicheamicin resistance. The transformation is performed by methods known in the art. The embodiment of the invention would be applicable to many diseases being treated with calicheamicin.

calicheamicin was tested, and the DNA cleavage ([1]; in the absence of DTT) was “no DNA cleavage”, the DNA cleavage ([1]; in the presence of DTT and calicheamicin) was “efficient cleavage” and the “Maximum fluorescence obtained upon cleavage of break light A” value ([2]; 3.2 nM break light A, 37° C.) was “identical to that observed with DNaseI”. For the same molecule, the “Binding to CalC (CalC Trp fluorescence intensity)” value (CalC; addition of DTT to activate calicheamicin) was “increased binding”, the “Change in CalC Trp fluorescence intensity” value (CalC; increasing calicheamicin concentration, absence of DTT) was “little change” and the “Increase in calicheamicin resistance on transgenic expression of calC” value (S. lividans) was 100 fold. For the same molecule, the “Rate of cleavage of molecular break light B compared with break light A” value [3] was “identical rate”, the “Maximum tolerated concentration of calicheamicin” value (from here on “Maximum tolerated concentration”) (E. coli [4]; cosmids 3a, 4a, 10a, 13a, and 16a) was 0.5 µg/mL and the “Maximum tolerated concentration” value (E. coli [4]; induced pRE7 (IPTG)) was 50.0 µg/mL. The “Maximum tolerated concentration” value (E. coli [4]; pJT1214 and pJT1232) was 5.0 µg/mL, the “Maximum tolerated concentration” value (E. coli [4]; pJT1224, pAP6, Pre1, and control plasmids pUC18, pBluescript, and pMAL-C2) was under 0.01 µg/mL and the “Maximum tolerated concentration” value (E. coli [4]; pRE7 (calC in pMAL-C2)) was 20.0 µg/mL. For the same molecule, the “Increase in calicheamicin resistance on overexpression of CalC” value (E. coli [4]; induced pRE7, in vivo) was 10^2 fold, the “Increase in calicheamicin resistance on transgenic expression of calC” value (yeast) was 50 fold and the “Increase in calicheamicin resistance on transgenic expression of calC” value (E. coli [5]) was 10^5 fold. For the same molecule, the “Increase in resistance to calicheamicin on transgenic expression of calC” value (HT1080 (human) cell line) was 10 fold.

esperamicin was tested, and the “Maximum fluorescence obtained upon cleavage of break light A” value ([2]; 3.2 nM break light A, 37° C.) was “identical to that observed with DNaseI”.

B1: BamHI: restriction endonuclease (protein, UniProt P23940 1-213, looked up)
Type II restriction enzyme …: MEVEKEFITDEAKELLSKDKLIQQAYNEVKTSICSPIWPATSKTFTINNTEKNCNGVVPIKELCYTLLEDTYNWYREKPLDILKLEKKKGGPIDVYKEFIENSELKRVGMEFETGNISSAHRSMNKLLLGLKHGEIDLAIILMPIKQLAYYLTDRVTNFEELEPYFELTEGQPFIFIGFNAEAYNSNVPLIPKGSDGMSKRSIKKWKDKVENK
In the case of B1, the “Change of fluorescence over time” value ([2]; 3.2 nM break light A, 37° C.) is reported as “no change”, the “Change of fluorescence over time” value ([3]; 3.2 nM break light B, 37° C.) is reported as “increase of fluorescence” and the “Fluorescence maximum intensity upon complete cleavage, relative to that observed with DNaseI” value ([3]; same concentration of molecular break light) is reported as 75%.

B2: CalC: polypeptide conferring calicheamicin resistance, 181 amino acids, SEQ ID. NO. 2 (protein)
chain: MTQEKTAPAAKSTTTKSTAAKKPKPPNYDPFVRHSVTVKADRKTAFKTFLEGFPEWWPNNFRTTKVGAPLGVDKKGGRWYEIDEQGEEHTFGLIRKVDEPDTLVIGWRLNGFGRIDPDNSSEFTVTFVADGQKKTRVDVEHTHFDRMGTKHAKRVRNGMDKGWPTILQSFQDKIDEEGAKK
modifications: Bacteria
In the case of B2, the “Effect on esperamicin-induced cleavage of DNA” value [2] is reported as “no effect”, the “Excess of CalC giving complete inhibition of calicheamicin-mediated DNA cleavage” value ([2]; 3.6 pM break light A, 3.5 nM calicheamicin) is reported as “roughly 2 fold” and the “Inhibition of calicheamicin mediated DNA cleavage” value ([2]; CalC in a two-fold molar excess of calicheamicin) is reported as “completely abolishes”.
